In patent publication US20250090615A1, “MULTIVITAMIN FOR AUXILIARY REGULATION OF BLOOD PRESSURE AND PREPARATION METHOD AND APPLICATION THEREOF” (Changde Jizhi Biological Technology Co., Ltd, priority 2023, published 2025):

System: spontaneously hypertensive rats
Test: Effects on spontaneously hypertensive rats (noninvasive tail artery systolic blood pressure)
Format: in vivo, rat
Conditions: 2-month-old spontaneously hypertensive rats; intragastric once a day for 6 weeks; amlodipine besylate tablets 0.05 mg/kg, multivitamin 600 mg/kg; measured 3 hours after last administration; mean ± spread, n=10
Text: Experimental animals are 2-month-old spontaneously hypertensive rats.
Experimental methods are as follows. Spontaneous hypertensive rats are taken and randomly divided into a model group and respective experimental groups. Specifically, in experimental group 1, amlodipine besylate tablets are given by intragastric administration at a dose of 0.05 milligrams per kilogram (mg/kg) once a day for 6 weeks. In experimental groups 2-9, amlodipine besylate tablets are given by intragastric administration at a dose of 0.05 mg/kg, and the products of the embodiments or comparative embodiments are given by intragastric administration at a dose of 600 mg/kg once a day for 6 weeks. The model group is given the same volume of distilled water once a day for 6 weeks. At 3 hours after the last administration, systolic blood pressure data are obtained on the computer through the software of noninvasive tail artery blood pressure measuring instrument. Blood pressure of each rat is measured 6-10 times each time, and the mean value is taken as the measured systolic blood pressure of the rat.

Q: How did the “6 weeks 3 h systolic blood pressure” value turn out when CCOC(=O)C1=C(COCCN)NC(C)=C(C(=O)OC)C1c1ccccc1Cl (stereo not shown) [Experimental group 1, amlodipine besylate] was run?
A: 160.29 ± 2.46
